The target in the first experiment is T1, Zcchc11 enzyme (Homo sapiens, UniProt Q5TAX3).
T1 construct: made in house; host or cells: HEK293 cells (Zcchc11); E. coli Rosetta II (LIN28A)
T1 sequence (Q5TAX3 212-1420): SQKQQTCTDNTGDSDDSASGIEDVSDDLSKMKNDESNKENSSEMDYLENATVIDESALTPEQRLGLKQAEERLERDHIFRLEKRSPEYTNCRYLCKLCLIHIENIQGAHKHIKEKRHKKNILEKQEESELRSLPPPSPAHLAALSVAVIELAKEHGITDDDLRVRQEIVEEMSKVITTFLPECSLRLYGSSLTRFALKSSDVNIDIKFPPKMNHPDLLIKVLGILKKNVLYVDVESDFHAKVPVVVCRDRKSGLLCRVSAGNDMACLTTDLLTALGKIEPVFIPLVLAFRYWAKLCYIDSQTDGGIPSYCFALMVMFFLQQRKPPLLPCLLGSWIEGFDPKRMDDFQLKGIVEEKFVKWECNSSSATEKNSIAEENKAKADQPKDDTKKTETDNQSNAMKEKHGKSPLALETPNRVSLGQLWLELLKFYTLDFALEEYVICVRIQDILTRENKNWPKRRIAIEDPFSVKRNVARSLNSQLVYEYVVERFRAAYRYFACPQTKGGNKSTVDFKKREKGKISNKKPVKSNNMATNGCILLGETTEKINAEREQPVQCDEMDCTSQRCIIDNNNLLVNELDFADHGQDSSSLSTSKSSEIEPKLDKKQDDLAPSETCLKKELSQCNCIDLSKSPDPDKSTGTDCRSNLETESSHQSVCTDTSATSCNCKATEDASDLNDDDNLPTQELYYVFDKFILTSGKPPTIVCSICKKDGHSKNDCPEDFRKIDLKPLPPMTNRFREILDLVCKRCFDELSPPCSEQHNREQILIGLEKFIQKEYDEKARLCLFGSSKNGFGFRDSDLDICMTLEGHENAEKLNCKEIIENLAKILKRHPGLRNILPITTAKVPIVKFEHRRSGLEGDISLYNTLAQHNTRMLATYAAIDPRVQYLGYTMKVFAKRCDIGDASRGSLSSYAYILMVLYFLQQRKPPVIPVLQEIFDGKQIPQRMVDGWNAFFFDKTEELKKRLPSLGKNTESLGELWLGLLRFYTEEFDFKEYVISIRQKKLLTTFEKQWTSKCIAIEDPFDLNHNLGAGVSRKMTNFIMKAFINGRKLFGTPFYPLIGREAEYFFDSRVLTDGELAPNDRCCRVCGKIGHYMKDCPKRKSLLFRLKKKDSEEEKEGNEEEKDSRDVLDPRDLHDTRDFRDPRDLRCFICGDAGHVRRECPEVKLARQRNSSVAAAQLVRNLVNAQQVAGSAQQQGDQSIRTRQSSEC
Kind of experiment: TUTase assay (Zcchc11 assay, Lin28a-dependent polyuridylation of pre-let-7). The format is biochemical. The following applies: LIN28A 10 nM, Zcchc11 0.2 nM, 5′-fluorescein pre-let-7 miRNA 2 nM, UTP 5 uM, room temperature, 30 minutes pre-incubation; read-out: Potency Lin28a-dep Z11 IC50. The method, boiled down: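 Readout: time-dependent quench of 5′-fluorescein pre-let-7 (2 nM) as 3′-rhodamine A20 probe anneals to poly(U) tails. Enzyme 0.2 nM Zcchc11 (res. 212-1420), LIN28A 10 nM, UTP 5 uM; pH 7.3 HEPES, 150 mM KCl, 5 mM MgCl2, RT. 4-parameter IC50; 100% = DMSO, 0% = no UTP.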
Turning to `O=C(O)c1cn(-c2cnccn2)c2cc(N3C[C@@H](F)C[C@H]3COc3ncccc3Cl)c(Cl)cc2c1=O` [Example 77, 6-chloro-7-[(2S,4S)-2-{[(3-chloropyridin-2-yl)oxy]methyl}-4-fluoropyrrolidin-1-yl]-4-oxo-1-(pyrazin-2-yl)-1,4-dihydroquinoline-3-carboxylic acid], the IC50 (in general, the concentration at which inhibition is half-maximal) was not above 1000 nM.
Take `NCCOc1cccnc1OC[C@H]1CCCN1c1cc2c(cc1Cl)c(=O)c(C(=O)O)cn2-c1ccc(Br)nc1` [Example 50, (R)-7-(2-(((3-(2-aminoethoxy)pyridin-2-yl)oxy)methyl)pyrrolidin-1-yl)-1-(6-bromopyridin-3-yl)-6-chloro-4-oxo-1,4-dihydroquinoline-3-carboxylic acid]: the IC50 was not above 1000 nM.
Same read-out and setting: to `CN(C)C1CN(c2ccc(-n3cc(C(=O)O)c(=O)c4cc(C#N)c(N5CCC[C@@]5(C)COc5ncccc5F)cc43)cn2)C1` [Example 51, (S)-6-cyano-1-(6-(3-(dimethylamino)azetidin-1-yl)pyridin-3-yl)-7-(2-(((3-fluoropyridin-2-yl)oxy)methyl)-2-methylpyrrolidin-1-yl)-4-oxo-1,4-dihydroquinoline-3-carboxylic acid] belongs not above 1000 nM.

The same experiment, now with this note: Lin28a-dependent Zcchc11 (Z11) TUTase activity; read-out: Potency Lin28a-dep Z11 IC50.
Turning to `COc1ccc(Cl)c(OCC23CC(CN2c2cc4c(cc2Cl)c(=O)c(C(=O)O)cn4-c2ccc(N)nc2)C3)n1` [Compound 176, 1-(6-aminopyridin-3-yl)-6-chloro-7-(1-[[(3-chloro-6-methoxy-pyridin-2-yl)oxy]methyl]-2-azabicyclo [2.1.1]hexan-2-yl)-4-oxoquinoline-3-carboxylic acid], the IC50 fell in the range of 1000 to 10000 nM.
The same measure, in the same setting: with `Cc1cccnc1OC[C@H]1CCCN1c1nc2c(cc1F)c(=O)c(C(=O)O)cn2-c1ccc(O)cc1` [Compound 133, (R)-6-fluoro-1-(4-hydroxy-phenyl)-7-(2-(((3-methylpyridin-2-yl)oxy)methyl)pyrrolidin-1-yl)-4-oxo-1,4-dihydro-1,8-naphthyridine-3-carboxylic acid] the figure was not above 1000 nM.
The same measure, in the same setting: with `CN(C)C1CN(c2ccc(-n3cc(C(=O)O)c(=O)c4cc(Cl)c(N5CC6(CC6)C[C@@H]5COc5ncccc5Cl)cc43)cn2)C1` [Compound 347, (R)-6-chloro-7-(6-(((3-chloropyridin-2-yl)oxy)methyl)-5-azaspiro[2.4]heptan-5-yl)-1-(6-(3-(dimethyl-amino)azetidin-1-yl)pyridin-3-yl)-4-oxo-1,4-dihydro-quinoline-3-carboxylic acid] the figure was not above 1000 nM; with `CN(C)C1CN(c2ccc(-n3cc(C(=O)O)c(=O)c4cc(C#N)c(N5CCC[C@@]5(C)COc5ncccc5F)cc43)cn2)C1` [Compound 285, (S)-6-cyano-1-(6-(3-(dimethyl-amino)azetidin-1-yl)pyridin-3-yl)-7-(2-(((3-fluoropyridin-2-yl)oxy)methyl)-2-methyl-pyrrolidin-1-yl)-4-oxo-1,4-dihydro-quinoline-3-carboxylic acid], not above 1000 nM; with `Cc1nn(C)cc1-n1cc(C(=O)O)c(=O)c2cc(Cl)c(N3CCC[C@@H]3COc3ncccc3Cl)cc21` [Compound 168, (R)-6-chloro-7-(2-(((3-chloropyridin-2-yl)oxy)methyl)pyrrolidin-1-yl)-1-(1,3-dimethyl-1H-pyrazol-4-yl)-4-oxo-1,4-dihydro-quinoline-3-carboxylic acid], not above 1000 nM.
Regarding `CN(C)C1CN(c2ccc(-n3cc(C(=O)O)c(=O)c4cc(Cl)c(N5CCC[C@@H]5COc5ncncc5Cl)cc43)cn2)C1` [Compound 167, (R)-6-chloro-7-(2-(((5-chloro-pyrimidin-4-yl)oxy)methyl)pyrrolidin-1-yl)-1-(6-(3-(dimethyl-amino)azetidin-1-yl)pyridin-3-yl)-4-oxo-1,4-dihydro-quinoline-3-carboxylic acid], the IC50 is not above 1000 nM.

The same experiment, now with this note: Lin28a-dependent Zcchc11 (Z11) TUTase assay; read-out: Potency Lin28a-dep Z11 IC50.
On to `COCCN1CC(n2cc(C(=O)O)c(=O)c3cc(Cl)c(N4CCC[C@@H]4COc4ncccc4Cl)cc32)C1` [Example 470, (R)-6-chloro-7-(2-(((3-chloropyridin-2-yl)oxy)methyl)pyrrolidin-1-yl)-1-(1-(2-methoxy-ethyl)azetidin-3-yl)-1-(1-(2-methoxyethyl)azetidin-3-yl)-4-oxo-1,4-dihydroquinoline-3-carboxylic acid], for which the IC50 lay in the range of 1000 to 10000 nM.
For the compound `CN(C)C1CN(c2ccc(-n3cc(C(=O)O)c(=O)c4cc(Cl)c(N5CC(c6ccc(O)nc6)C[C@@H]5COc5ncccc5Cl)cc43)cn2)C1` (stereo partly drawn) [Example 608], the IC50 was not above 1000 nM.
Same read-out and setting: to `CN(C)CCNc1ccc(-n2cc(C(=O)O)c(=O)c3cc(C#N)c(N4CCC[C@@H]4COc4ncccc4Cl)cc32)cn1` [Example 570, (R)-7-(2-(((3-chloropyridin-2-yl)oxy)methyl)pyrrolidin-1-yl)-6-cyano-1-(6-((2-(dimethylamino)ethyl)amino)pyridin-3-yl)-4-oxo-1,4-dihydroquinoline-3-carboxylic acid] belongs not above 1000 nM; to `O=C(O)c1cn(-c2ccnc(N3CCC3)c2)c2cc(N3CCC[C@@H]3COc3ccccn3)c(Cl)cc2c1=O` [Example 553, (R)-1-(2-(azetidin-1-yl)pyridin-4-yl)-6-chloro-4-oxo-7-(2-((pyridin-2-yloxy)methyl)pyrrolidin-1-yl)-1,4-dihydroquinoline-3-carboxylic acid], not above 1000 nM; to `Cc1cccnc1OC[C@H]1CCCN1c1cc2c(cc1F)c(=O)c(C(=O)O)cn2C1(C)CC1` [Example 356, (R)-6-fluoro-1-(1-methylcyclo-propyl)-7-(2-(((3-methylpyridin-2-yl)oxy)methyl)pyrrolidin-1-yl)-4-oxo-1,4-dihydroquinoline-3-carboxylic acid], not above 1000 nM.
Same read-out and setting: with `COc1ccc(Cl)c(OC[C@H]2CC3(CC3)CN2c2cc3c(cc2Cl)c(=O)c(C(=O)O)cn3-c2ccc(N3CC(N(C)C)C3)nc2)n1` [Example 663, (R)-6-chloro-7-(6-(((3-chloro-6-methoxypyridin-2-yl)oxy)methyl)-5-azaspiro[2.4]heptan-5-yl)-1-(6-(3-(dimethylamino)azetidin-1-yl)pyridin-3-yl)-4-oxo-1,4-dihydroquinoline-3-carboxylic acid] the figure was not above 1000 nM; with `O=C(O)c1cn(-c2ccc3[nH]ncc3n2)c2cc(N3CCC[C@@H]3COc3ncccc3Cl)c(Cl)cc2c1=O` [Example 486, 6-chloro-7-[(2R)-2-{[(3-chloropyridin-2-yl)oxy]methyl}pyrrolidin-1-yl]-4-oxo-1-{1H-pyrazolo[4,3-b]pyridin-5-yl}-1,4-dihydroquinoline-3-carboxylic acid], not above 1000 nM; with `CN(C)C1CN(c2ccc(-n3cc(C(=O)O)c(=O)c4cc(F)c(N5C[C@@H](F)C[C@@H]5COc5ncccc5F)cc43)cn2)C1` [Example 465, 1-(6-(3-(dimethylamino)azetidin-1-yl)pyridin-3-yl)-6-fluoro-7-((2R,4S)-4-fluoro-2-(((3-fluoropyridin-2-yl)oxy)methyl)pyrrolidin-1-yl)-4-oxo-1,4-dihydroquinoline-3-carboxylic acid], not above 1000 nM.
On the same count and under the same terms, with `O=C(O)c1cn(C2CCCC2)c2cc(N3CCC[C@@H]3COc3ccccn3)c(F)cc2c1=O` [Example 449, (R)-1-cyclopentyl-6-fluoro-4-oxo-7-(2-((pyridin-2-yloxy)methyl)pyrrolidin-1-yl)-1,4-dihydroquinoline-3-carboxylic acid] the figure was 1000 to 10000 nM.

For the origin of these results see US12662491B2 (Redona Therapeutics, Inc., priority 2020, dated 2026).
